For this assay, the target named is T1, human nAChRα6-α3 chimera, in addition to β2 and β3^V273S subunits (Homo sapiens, UniProt P32297+Q15825).
T1 construct: expressed in transfected cells
T1 sequence (Q05901 25-458 V273S): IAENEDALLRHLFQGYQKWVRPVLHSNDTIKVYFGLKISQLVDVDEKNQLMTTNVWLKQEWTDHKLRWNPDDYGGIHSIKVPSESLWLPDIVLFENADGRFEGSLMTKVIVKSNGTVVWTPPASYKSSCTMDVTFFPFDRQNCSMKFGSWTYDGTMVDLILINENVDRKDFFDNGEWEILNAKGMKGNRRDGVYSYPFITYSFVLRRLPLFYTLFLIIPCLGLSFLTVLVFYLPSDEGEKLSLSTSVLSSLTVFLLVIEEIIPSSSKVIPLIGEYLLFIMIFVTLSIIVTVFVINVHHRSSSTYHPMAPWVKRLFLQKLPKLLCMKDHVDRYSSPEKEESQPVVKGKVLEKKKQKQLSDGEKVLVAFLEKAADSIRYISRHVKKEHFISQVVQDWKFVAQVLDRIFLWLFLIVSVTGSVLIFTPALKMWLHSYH
T1 sequence (P17787 26-502, stated change not applied, further chain): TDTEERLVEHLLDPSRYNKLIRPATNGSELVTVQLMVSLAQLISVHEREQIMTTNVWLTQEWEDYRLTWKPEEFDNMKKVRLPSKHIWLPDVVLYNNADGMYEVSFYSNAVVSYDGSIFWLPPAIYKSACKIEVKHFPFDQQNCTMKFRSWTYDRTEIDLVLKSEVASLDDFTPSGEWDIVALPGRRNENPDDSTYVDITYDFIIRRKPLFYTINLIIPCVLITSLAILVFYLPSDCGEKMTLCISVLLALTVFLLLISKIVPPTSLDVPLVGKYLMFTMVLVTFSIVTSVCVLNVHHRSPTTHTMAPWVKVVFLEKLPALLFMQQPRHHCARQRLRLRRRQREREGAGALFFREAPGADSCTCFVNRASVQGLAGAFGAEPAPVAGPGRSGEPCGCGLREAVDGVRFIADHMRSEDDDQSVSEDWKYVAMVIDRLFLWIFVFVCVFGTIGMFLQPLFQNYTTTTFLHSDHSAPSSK
T1 sequence (Q15825+P32297 fused with the stated changes): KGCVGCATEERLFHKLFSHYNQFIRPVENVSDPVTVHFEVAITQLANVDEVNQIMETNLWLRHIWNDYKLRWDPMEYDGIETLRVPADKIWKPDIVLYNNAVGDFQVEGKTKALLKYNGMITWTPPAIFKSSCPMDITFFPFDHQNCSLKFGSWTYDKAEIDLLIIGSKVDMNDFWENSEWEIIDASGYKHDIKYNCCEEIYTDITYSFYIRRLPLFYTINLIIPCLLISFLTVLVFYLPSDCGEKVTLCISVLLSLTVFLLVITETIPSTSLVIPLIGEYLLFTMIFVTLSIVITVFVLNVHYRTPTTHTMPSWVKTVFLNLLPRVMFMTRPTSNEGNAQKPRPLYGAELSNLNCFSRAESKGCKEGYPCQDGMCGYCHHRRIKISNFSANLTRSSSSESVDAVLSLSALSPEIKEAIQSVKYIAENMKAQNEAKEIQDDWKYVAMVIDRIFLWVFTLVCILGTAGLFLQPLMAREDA
As to the kind of experiment: fluorescence-based calcium assay: inhibition of nicotine stimulated nAChRα6 activity (FLIPR). As to conditions: HEK cell line stably expressing the receptor; 10 min pre-incubation, nicotine EC80; 10-point curve, duplicate wells; read-out: IC50. As to the method:
The ability of the test compounds to inhibit nicotine stimulated nAChRα6 activity was determined in a fluorescence-based calcium assay. Compound activity was determined using a HEK cell line stably expressing a human nAChRα6-α3 chimera, in addition to β2 and β3^V273S subunits (as in Capelli et al, Br J Pharmacol 163(2): 313-29 2011). In this cell line, nicotine stimulated an increase in intracellular calcium concentration, measured as an increase in fluorescence when cells were incubated with a calcium sensitive dye. Test compounds were pre-incubated with cells prior to nicotine stimulation to detect any reduction in the magnitude of the nicotine response.
The day prior to the assay, compounds were serially diluted in DMSO (200× final assay concentration (FAC)), in 384-well plates which were then stored in the dark at room temperature (RT) until use. Cells were seeded at 20 k/well in black, poly-D-lysine coated, clear bottom 384-well plates and incubated for 4 hours at 37° C., followed by overnight incubation at 30° C. The following day, the DMSO compound plate was diluted 1:20 (10×FAC) in assay buffer (HEPES buffered saline solution with 10 mM HEPES, 0.1% bovine serum albumin, 1 mM probenecid). A nicotine solution was prepared in assay buffer (7×FAC) and dispensed into a 384-well plate. The growth media was removed from the cell plate, replaced with 53 μl calcium dye/well (Calcium 5; Molecular Devices) and the plate incubated at 30° C. for 45 minutes. Test compounds were then added to the cells (7 μl of 10×FAC) and incubated for 10 minutes, after which nicotine EC80 (10 μl of 7×FAC) was added and changes in fluorescence measured using a FLIPR plate reader (Molecular Devices).
Compound activity was examined using a 10-point, half-log concentration-response range and each concentration was tested in duplicate wells.
The term IC50 denotes the concentration that inhibits the measured activity by half. On to `Cc1nc(NCC2NCCC2(F)F)ncc1-c1ccc(F)cc1F` (single isomer, unassigned) [Example 83b, 5-(2,4-difluorophenyl)-N-((3,3-difluoropyrrolidin-2-yl)methyl)-4-methyl-pyrimidin-2-amine], for which the IC50 worked out at 0.456 µM.
For `Cc1nc(NCC2N(C)CCC2(F)F)ncc1-c1ccc(F)cc1F` (single isomer, unassigned) [Example 84a, N-((3,3-difluoro-1-methylpyrrolidin-2-yl)methyl)-5-(2,4-difluorophenyl)-4-methyl-pyrimidin-2-amine], the IC50 turned out to be 1.53 µM.
The result for `Cc1nc(NCC2N(C)CCC2(F)F)ncc1-c1ccc(F)cc1F` (single isomer, unassigned) [Example 84b, N-((3,3-difluoro-1-methylpyrrolidin-2-yl)methyl)-5-(2,4-difluorophenyl)-4-methyl-pyrimidin-2-amine] reads 1.65 µM.
As for `Cc1nc(NC2CCN3CCCC23)ncc1-c1ccc(F)cc1F` (single isomer, unassigned) [Example 86a, N-(5-(2,4-difluorophenyl)-4-methyl-pyrimidin-2-yl)hexahydro-1H-pyrrolizin-1-amine], the IC50 amounted to 0.122 µM.
Consider `Cc1nc(NC2CCN3CCCC23)ncc1-c1ccc(F)cc1F` (single isomer, unassigned) [Example 86b, N-(5-(2,4-difluorophenyl)-4-methyl-pyrimidin-2-yl)hexahydro-1H-pyrrolizin-1-amine], for which the IC50 came to 0.126 µM.
For the molecule `Cc1nc(NCC2C(F)CCN2C)ncc1-c1ccc(F)cc1F` (single isomer, unassigned) [Example 96a, 5-(2,4-difluorophenyl)-N-((3-fluoro-1-methylpyrrolidin-2-yl)methyl)-4-methyl-pyrimidin-2-amine], the IC50 was 0.151 µM.
The result for `Cc1nc(NCC2C(F)CCN2C)ncc1-c1ccc(F)cc1F` (single isomer, unassigned) [Example 96b, 5-(2,4-difluorophenyl)-N-((3-fluoro-1-methylpyrrolidin-2-yl)methyl)-4-methyl-pyrimidin-2-amine] reads 0.099 µM.
The result for `Cc1nc(NC2CCN3CCCC23)ncc1-c1ccc(OC(F)(F)F)cc1F` (single isomer, unassigned) [Example 97a, N-(5-(2-fluoro-4-(trifluoromethoxy)phenyl)-4-methyl-pyrimidin-2-yl)hexahydro-1H-pyrrolizin-1-amine] reads 0.184 µM.
Take `Cc1nc(NC2CCN3CCCC23)ncc1-c1ccc(OC(F)(F)F)cc1F` (single isomer, unassigned) [Example 97b, N-(5-(2-fluoro-4-(trifluoromethoxy)phenyl)-4-methyl-pyrimidin-2-yl)hexahydro-1H-pyrrolizin-1-amine]: the IC50 is 0.152 µM.
On to `Cc1nc(NC2CCN3CCCC23)ncc1-c1ccc(OC(F)(F)F)cc1F` (single isomer, unassigned) [Example 97c, N-(5-(2-fluoro-4-(trifluoromethoxy)phenyl)-4-methyl-pyrimidin-2-yl)hexahydro-1H-pyrrolizin-1-amine], for which the half-maximal inhibitory concentration (IC50) is 0.18 µM.
The value for `Cc1nc(NC2CCN3CCCC23)ncc1-c1ccc(OC(F)(F)F)cc1F` (single isomer, unassigned) [Example 97d, N-(5-(2-fluoro-4-(trifluoromethoxy)phenyl)-4-methyl-pyrimidin-2-yl)hexahydro-1H-pyrrolizin-1-amine] was 0.299 µM; that for `Cc1nc(NC[C@@H]2CN(C)CCO2)ncc1-c1ccc(C(F)(F)F)cc1F` (single isomer, unassigned) [Example 108a] was 0.086 µM; that for `Cc1nc(NC[C@H]2CN(C)CCO2)ncc1-c1ccc(C(F)(F)F)cc1F` (single isomer, unassigned) [Example 108b] was 0.077 µM.
On to `Cc1nc(NC(C)[C@H]2CCCN2)ncc1-c1ccc(C(F)(F)F)cc1F` (single isomer, unassigned) [Example 129a, 5-(2-fluoro-4-(trifluoromethyl)phenyl)-4-methyl-N-((1*R)-1-((2R)-pyrrolidin-2-yl)ethyl)pyrimidin-2-amine], for which the IC50 came out at 0.065 µM.
On to `Cc1nc(NC(C)[C@H]2CCCN2)ncc1-c1ccc(C(F)(F)F)cc1F` (single isomer, unassigned) [Example 129b, 5-(2-fluoro-4-(trifluoromethyl)phenyl)-4-methyl-N-((1*S)-1-((2R)-pyrrolidin-2-yl)ethyl)pyrimidin-2-amine], for which the IC50 is 0.105 µM.
On to `Cc1nc(NC(C)[C@@H]2CCCN2)ncc1-c1ccc(C(F)(F)F)cc1F` (single isomer, unassigned) [Example 130a, 5-(2-fluoro-4-(trifluoromethyl)phenyl)-4-methyl-N-((1*R)-1-((2S)-pyrrolidin-2-yl)ethyl)pyrimidin-2-amine], for which the half-maximal inhibitory concentration (IC50) is 0.118 µM.
In the case of `Cc1nc(NC(C)[C@@H]2CCCN2)ncc1-c1ccc(C(F)(F)F)cc1F` (single isomer, unassigned) [Example 130b, 5-(2-fluoro-4-(trifluoromethyl)phenyl)-4-methyl-N-((1*S)-1-((2S)-pyrrolidin-2-yl)ethyl)pyrimidin-2-amine], the IC50 was found to be 0.049 µM.
The value for `Cc1nc(NC(C)[C@H]2CCCN2C)ncc1-c1ccc(C(F)(F)F)cc1F` (single isomer, unassigned) [Example 131a, 5-(2-fluoro-4-(trifluoromethyl)phenyl)-4-methyl-N-((1*R)-1-((2R)-1-methylpyrrolidin-2-yl)ethyl)pyrimidin-2-amine] was 0.172 µM; that for `Cc1nc(NC(C)[C@H]2CCCN2C)ncc1-c1ccc(C(F)(F)F)cc1F` (single isomer, unassigned) [Example 131b, 5-(2-fluoro-4-(trifluoromethyl)phenyl)-4-methyl-N-((1*S)-1-((2R)-1-methylpyrrolidin-2-yl)ethyl)pyrimidin-2-amine] was 0.291 µM.
The result for `Cc1nc(NC(C)[C@@H]2CCCN2C)ncc1-c1ccc(C(F)(F)F)cc1F` (single isomer, unassigned) [Example 132a, 5-(2-fluoro-4-(trifluoromethyl)phenyl)-4-methyl-N-((1*R)-1-((2S)-1-methylpyrrolidin-2-yl)ethyl)pyrimidin-2-amine] reads 0.092 µM; that for `Cc1nc(NC(C)[C@@H]2CCCN2C)ncc1-c1ccc(C(F)(F)F)cc1F` (single isomer, unassigned) [Example 132b, 5-(2-fluoro-4-(trifluoromethyl)phenyl)-4-methyl-N-((1*S)-1-((2S)-1-methylpyrrolidin-2-yl)ethyl)pyrimidin-2-amine], 0.097 µM.
The value for `Cc1nc(NC[C@H]2NCC[C@@H]2F)ncc1-c1ccc(C(F)(F)F)cc1F` (single isomer, unassigned) [Example 133a, 5-(2-fluoro-4-(trifluoromethyl)phenyl)-N-(((2*S,3*R)-3-fluoropyrrolidin-2-yl)methyl)-4-methyl-pyrimidin-2-amine] was 0.305 µM; that for `Cc1nc(NC[C@H]2NCC[C@@H]2F)ncc1-c1ccc(C(F)(F)F)cc1F` (single isomer, unassigned) [Example 133b, 5-(2-fluoro-4-(trifluoromethyl)phenyl)-N-(((2*R,3*S)-3-fluoropyrrolidin-2-yl)methyl)-4-methyl-pyrimidin-2-amine] was 0.3 µM.
On to `Cc1nc(NCC2CCC(C)N2C)ncc1-c1ccc(C(F)(F)F)cc1F` (single isomer, unassigned) [Example 138a, N-(((2*R,5*R)-1,5-dimethylpyrrolidin-2-yl)methyl)-5-(2-fluoro-4-(trifluoromethyl)phenyl)-4-methyl-pyrimidin-2-amine], for which the half-inhibitory concentration (IC50) stood at 0.207 µM.
On to `Cc1nc(NCC2CCC(C)N2C)ncc1-c1ccc(C(F)(F)F)cc1F` (single isomer, unassigned) [Example 138b, N-(((2*S,5*S)-1,5-dimethylpyrrolidin-2-yl)methyl)-5-(2-fluoro-4-(trifluoromethyl)phenyl)-4-methyl-pyrimidin-2-amine], for which the IC50 came to 0.085 µM.
Take `Cc1nc(NCC2CCC(C)N2C)ncc1-c1ccc(C(F)(F)F)cc1F` (single isomer, unassigned) [Example 138c, N-(((2*R,5*S)-1,5-dimethylpyrrolidin-2-yl)methyl)-5-(2-fluoro-4-(trifluoromethyl)phenyl)-4-methyl-pyrimidin-2-amine]: the IC50 turned out to be 0.069 µM.
The result for `Cc1nc(NCC2CCC(C)N2C)ncc1-c1ccc(C(F)(F)F)cc1F` (single isomer, unassigned) [Example 138d, N-(((2*S,5*R)-1,5-dimethylpyrrolidin-2-yl)methyl)-5-(2-fluoro-4-(trifluoromethyl)phenyl)-4-methyl-pyrimidin-2-amine] reads 0.025 µM; that for `Cc1nc(NCCC2CCCN2C)ncc1-c1ccccc1` (centres unmarked) [Example 1, 4-methyl-N-(2-(1-methylpyrrolidin-2-yl)ethyl)-5-phenylpyrimidin-2-amine], 0.048 µM; that for `CN1CCCC1CCNc1ncc(-c2ccccc2)cn1` (centres unmarked) [Example 2, N-(2-(1-methylpyrrolidin-2-yl)ethyl)-5-phenylpyrimidin-2-amine], 0.302 µM.

These data come from patent US20240059677A1, “SUBSTITUTED PYRIMIDINE DERIVATIVES AS NICOTINIC ACETYLCHOLINESTERASE RECEPTOR ALPHA 6 MODULATOR” (priority 2020, published 2024).
